Experiments:
A549 cells = test: Apoptotic activity by MTT analysis, A549 cells; assay type: cell-based; conditions: Homo sapiens, A549, 12 h, 15 μM of the compound, mean±standard deviation, read-out: Apoptosis (%) A549 cells
Description: (§1) Lung cancer cells (A549), colorectal cancer cells (HCT116), HeLa cells, liver cancer cells (HepG2), T-cell leukemia cells (Jurkat), myeloid leukemia cells (K562), breast cancer cells (MCF-7 and MDA-MB-231) and myelocytic leukemia cells ([…]) were obtained from the American Type Culture Collection (ATCC), and cultured in 10% fetal bovine serum (FBS), 50 units/mL penicillin and 50 units/mL streptomycin-added RPMI 1640 (Invitrogen). The cells were maintained in a humidified 37° C., 5% CO2 atmosphere. The anticancer activity was detected by MTT analysis. Each type of cancer cells were plated in triplicate in a 96-well microtiter plate, and cultured at 37° C. for 24 hours. The cells were treated with each of the compounds prepared above at 37° C. for 12 hours. After the culturing of the cells, 10 μL of an MTT reagent ((3-[4,5-dimethyl-2-thiazolyl]-2,5-diphenyl-2H-tetrazoliumbromide) was added to each well, and cultured for 3.5 hours. The absorbance of each sample was detected using a UV microplate reader (SpectraMax 340PC 384, Molecular Devices) at 570 nm. The detection results were measured as a mean value. The effect of each compound on apoptosis is shown in Table 1.
(§2) The A549 and HeLa cells were treated with 15 μM of the compound for 12 hours. The apoptosis was detected using MTT (mean±standard deviation).

HeLa cells = test: Apoptotic activity by MTT analysis, HeLa cells; assay type: cell-based; conditions: Homo sapiens, HeLa, 12 h, 15 μM of the compound, mean±standard deviation, read-out: Apoptosis (%) HeLa cells
Description: as §1, §2

With `NCCOCCOCCNC(=O)c1ccc(Cn2c(-c3cccc(C(F)(F)F)c3)nc(-c3ccc(Br)cc3)c2-c2ccc(Br)cc2)cc1` [Example 2, N-(2-(2-(2-aminoethoxy)ethoxy)ethyl)-4-((4,5-bis(4-bromophenyl)-2-(3-(trifluoromethyl)phenyl)-1H-imidazole-1-yl)methyl)benzamide] the cytotoxicity at 15 µM (A549 cells) was 80 ± 1.16% and the cytotoxicity at 15 µM (HeLa cells) was 88 ± 1.39%.
With `COc1cccc(-c2nc(-c3cccc(C(F)(F)F)c3)n(Cc3ccc(C(=O)NCCOCCOCCN)cc3)c2-c2cccc(OC)c2)c1` [Example 11, N-(2-(2-(2-aminoethoxy)ethoxy)ethyl)-4-((4,5-bis(3-methoxyphenyl)-2-(3-(trifluoromethyl)phenyl)-1H-imidazole-1-yl)methyl)benzamide] the cytotoxicity at 15 µM (A549 cells) was 81 ± 1.26% and the cytotoxicity at 15 µM (HeLa cells) was 87 ± 1.55%.
Work on `CN(C)c1ccc(-c2nc(-c3cccc(C(F)(F)F)c3)n(Cc3ccc(C(=O)NCCOCCOCCN)cc3)c2-c2ccc(N(C)C)cc2)cc1` [Example 27, N-(2-(2-(2-aminoethoxy)ethoxy)ethyl)-4-((4,5-bis(4-(dimethylamino)phenyl)-2-(3-(trifluoromethyl)phenyl)-1H-imidazole-1-yl)methyl)benzamide] yielded a cytotoxicity at 15 µM (A549 cells) of 76 ± 0.98% and a cytotoxicity at 15 µM (HeLa cells) of 86 ± 0.38%.
With `Cc1ccc(-c2nc(-c3cccc(C(F)(F)F)c3)n(Cc3ccc(C(=O)NCCOCCOCCN)cc3)c2-c2ccc(C)cc2)cc1` [Example 35, N-(2-(2-(2-aminoethoxy)ethoxy)ethyl)-4-((4,5-ditolyl-2-(3-(trifluoromethyl)phenyl)-1H-imidazole-1-yl)methyl)benzamide] the cytotoxicity at 15 µM (A549 cells) was 64 ± 1.36% and the cytotoxicity at 15 µM (HeLa cells) was 87 ± 1.68%.
`COc1ccc(-c2nc(-c3ccc(C(F)(F)F)cc3)n(Cc3ccc(C(=O)NCCOCCOCCN)cc3)c2-c2ccc(OC)cc2)cc1` [Example 43, N-(2-(2-(2-aminoethoxy)ethoxy)ethyl)-4-((4,5-bis(4-methoxyphenyl)-2-(4-(trifluoromethyl)phenyl)-1H-imidazole-1-yl)methyl)benzamide] was tested, and the cytotoxicity at 15 µM (A549 cells) was 36 ± 0.86% and the cytotoxicity at 15 µM (HeLa cells) was 38 ± 0.38%.
With `COc1ccc(-c2nc(-c3ccc(C(F)(F)F)cc3C(F)(F)F)n(Cc3ccc(C(=O)NCCOCCOCCN)cc3)c2-c2ccc(OC)cc2)cc1` [Example 44, N-(2-(2-(2-aminoethoxy)ethoxy)ethyl)-4-((2-(2,4-bis(trifluoromethyl)phenyl)-4,5-bis(4-methoxyphenyl)-1H-imidazole-1-yl)methyl)benzamide] the cytotoxicity at 15 µM (A549 cells) was 38 ± 0.68% and the cytotoxicity at 15 µM (HeLa cells) was 31 ± 0.28%.
In the case of `COc1ccc(-c2nc(-c3cc(C)cc(C)c3)n(Cc3ccc(C(=O)NCCOCCOCCN)cc3)c2-c2ccc(OC)cc2)cc1` [Example 45, N-(2-(2-(2-aminoethoxy)ethoxy)ethyl)-4-((2-(3,5-dimethylphenyl)-4,5-bis(4-methoxyphenyl)-1H-imidazole-1-yl)methyl)benzamide], the cytotoxicity at 15 µM (A549 cells) is reported as 37 ± 0.5% and the cytotoxicity at 15 µM (HeLa cells) is reported as 34 ± 1.61%.
`COc1ccc(-c2nc(-c3cc(OC)cc(OC)c3)n(Cc3ccc(C(=O)NCCOCCOCCN)cc3)c2-c2ccc(OC)cc2)cc1` [Example 46, N-(2-(2-(2-aminoethoxy)ethoxy)ethyl)-4-((2-(3,5-dimethoxyphenyl)-4,5-bis(4-methoxyphenyl)-1H-imidazole-1-yl)methyl)benzamide] gave a cytotoxicity at 15 µM (A549 cells) of 37 ± 1.34% and a cytotoxicity at 15 µM (HeLa cells) of 48 ± 0.28%.
`COC(=O)c1cc(C(=O)OC)cc(-c2nc(-c3ccc(OC)cc3)c(-c3ccc(OC)cc3)n2Cc2ccc(C(=O)NCCOCCOCCN)cc2)c1` [Example 47, Dimethyl 5-(1-(4-(2-(2-(2-aminoethoxy)ethoxy)ethylcarbamoyl)benzyl)-4,5-bis(4-methoxyphenyl)-1H-imidazole-2-yl)isophthalate] showed a cytotoxicity at 15 µM (A549 cells) of 37 ± 0.86% and a cytotoxicity at 15 µM (HeLa cells) of 40 ± 0.7%.
`COc1ccc(-c2nc(-c3cc(OC)c(OC)c(OC)c3)n(Cc3ccc(C(=O)NCCOCCOCCN)cc3)c2-c2ccc(OC)cc2)cc1` [Example 48, N-(2-(2-(2-aminoethoxy)ethoxy)ethyl)-4-((4,5-bis(4-methoxyphenyl)-2-(3,4,5-trimethoxyphenyl)-1H-imidazole-1-yl)methyl)benzamide] was tested, and the cytotoxicity at 15 µM (A549 cells) was 23 ± 0.68% and the cytotoxicity at 15 µM (HeLa cells) was 30 ± 0.76%.

Reference: patent US20160297768A1, “NOVEL IMIDAZOLE DERIVATIVES AND THERAPEUTIC USE THEREOF” (INDUSTRY-ACA-DEMIC COORPERATION FOUNDATION, YONSEI …, priority 2013, published 2016)
